According to a compilation of properties of binary mixtures (doi:10.1007/s11581-010-0511-5):

Test: xn = mol fraction of the nth substance listed
Conditions: 101 kPa

CCCC[N+]1(C)CCCC1.O=S(=O)([N-]S(=O)(=O)C(F)(F)F)C(F)(F)F + CO
Conditions	electrical conductivity [S/m]	viscosity [mPa·s]
293.15 K, x1 = 0.11	0.628	2.16
293.15 K, x1 = 0.16	1.22	3.9
293.15 K, x1 = 0.21	1.6	6.01
293.15 K, x1 = 0.32	1.98	10.65
293.15 K, x1 = 0.42	2.14	15.15
293.15 K, x1 = 0.47	2.04	17.28
293.15 K, x1 = 0.53	1.82	19.42
293.15 K, x1 = 0.58	1.63	21.7
293.15 K, x1 = 0.63	1.47	24.4
293.15 K, x1 = 0.68	1.23	27.6
293.15 K, x1 = 0.74	0.998	31.9
293.15 K, x1 = 0.79	0.82	37.6
293.15 K, x1 = 0.84	0.649	45.2
293.15 K, x1 = 0.89	0.402	55.3
293.15 K, x1 = 0.95	–	68.7
293.15 K, x1 = 1	0.229	86
298.15 K, x1 = 0.05	0.399	0.94
298.15 K, x1 = 0.11	0.684	1.93
298.15 K, x1 = 0.16	1.32	3.43
298.15 K, x1 = 0.21	1.73	5.24
298.15 K, x1 = 0.32	2.15	9.18
298.15 K, x1 = 0.37	2.32	11.1
298.15 K, x1 = 0.42	2.37	12.93
298.15 K, x1 = 0.47	2.33	14.69
298.15 K, x1 = 0.53	2.12	16.43
298.15 K, x1 = 0.58	1.88	18.28
298.15 K, x1 = 0.63	1.66	20.39
298.15 K, x1 = 0.68	1.43	23
298.15 K, x1 = 0.74	1.2	26.3
298.15 K, x1 = 0.79	0.991	30.8
298.15 K, x1 = 0.84	0.786	36.7
298.15 K, x1 = 0.89	0.495	44.6
298.15 K, x1 = 0.95	–	54.9
298.15 K, x1 = 1	0.282	68.1
303.15 K, x1 = 0.05	0.43	0.88
303.15 K, x1 = 0.11	0.754	1.75
303.15 K, x1 = 0.16	1.43	3.06
303.15 K, x1 = 0.21	1.88	4.62
303.15 K, x1 = 0.32	2.35	7.96
303.15 K, x1 = 0.37	2.53	9.57
303.15 K, x1 = 0.47	2.59	12.57
303.15 K, x1 = 0.53	2.37	14.02
303.15 K, x1 = 0.58	2.1	15.54
303.15 K, x1 = 0.63	1.84	17.28
303.15 K, x1 = 0.68	1.6	19.39
303.15 K, x1 = 0.74	1.35	22.1
303.15 K, x1 = 0.79	1.13	25.6
303.15 K, x1 = 0.84	0.94	30.2
303.15 K, x1 = 0.89	0.601	36.2
303.15 K, x1 = 0.95	–	44
303.15 K, x1 = 1	0.344	54
308.15 K, x1 = 0.05	0.464	0.82
308.15 K, x1 = 0.11	0.816	1.6
308.15 K, x1 = 0.16	1.54	2.75
308.15 K, x1 = 0.21	2.07	4.1
308.15 K, x1 = 0.32	2.55	6.97
308.15 K, x1 = 0.37	2.74	8.34
308.15 K, x1 = 0.42	2.86	9.64
308.15 K, x1 = 0.53	2.65	12.09
308.15 K, x1 = 0.58	2.36	13.36
308.15 K, x1 = 0.63	2.1	14.8
308.15 K, x1 = 0.74	1.57	18.74
308.15 K, x1 = 0.79	1.33	21.6
308.15 K, x1 = 0.84	1.1	25.3
308.15 K, x1 = 0.89	0.686	30.2
308.15 K, x1 = 0.95	–	36.4
308.15 K, x1 = 1	0.415	44.4
313.15 K, x1 = 0.05	0.504	0.77
313.15 K, x1 = 0.11	0.86	1.47
313.15 K, x1 = 0.16	1.66	2.48
313.15 K, x1 = 0.21	2.24	3.67
313.15 K, x1 = 0.26	2.53	4.92
313.15 K, x1 = 0.37	2.95	7.34
313.15 K, x1 = 0.42	3.07	8.45
313.15 K, x1 = 0.47	3.09	9.51
313.15 K, x1 = 0.58	2.63	11.64
313.15 K, x1 = 0.63	2.38	12.85
313.15 K, x1 = 0.79	1.55	18.4
313.15 K, x1 = 0.89	0.876	25.1
313.15 K, x1 = 0.95	–	29.8
318.15 K, x1 = 0.05	0.538	0.73
318.15 K, x1 = 0.11	0.94	1.36
318.15 K, x1 = 0.16	1.8	2.26
318.15 K, x1 = 0.26	2.7	4.39
318.15 K, x1 = 0.32	3.02	5.45
318.15 K, x1 = 0.37	3.18	6.46
318.15 K, x1 = 0.42	3.26	7.41
318.15 K, x1 = 0.47	3.3	8.32
318.15 K, x1 = 0.53	3.18	9.22
318.15 K, x1 = 0.58	2.86	10.16
318.15 K, x1 = 0.74	1.98	14.02
318.15 K, x1 = 0.89	0.991	21.4
318.15 K, x1 = 1	0.559	29.7

CO + CCCC[N+]1(C)CCCC1.O=S(=O)([N-]S(=O)(=O)C(F)(F)F)C(F)(F)F
x2 = 0
Conditions	viscosity [mPa·s]
298.15 K	0.7
303.15 K	0.66
308.15 K	0.61
313.15 K	0.57
318.15 K	0.53
